Source: patent US20100216779A1 (GLAXOSMITHKLINE LLC, priority 2007, published 2010)

Columns and labels:
Assay type in all cases: cell-based
[1] = target: T1, human IGF-1R (NIH-3T3 cells over expressing human IGF-1R) (Homo sapiens, UniProt P08069); test: IGF-1R cellular autophosphorylation (DELFIA); details: IGF-1 stimulated
T1 construct: expressed in transfected cells; host or cells: NIH-3T3 (mouse fibroblasts)
How it was run: (§1)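 Receptor-overexpressing NIH-3T3, 10% FBS, 37 °C; cpd 30 uM–1.5 nM × 2 h; stim IGF-1 30 ng/mL (IGF-1R) or insulin 3 ug/mL (IR), 15 min; lysate DELFIA, Eu anti-pTyr; % of stimulated signal.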

[2] = target: T2, IR (NIH-3T3 cells over expressing human IGF-1R or IR) (Homo sapiens, UniProt P06213); test: IR cellular autophosphorylation (DELFIA); details: NIH-3T3 cells over expressing IR, insulin stimulated
T2 construct: expressed in transfected cells; host or cells: NIH-3T3 (mouse fibroblasts)
T2 sequence (P06213 28-1382): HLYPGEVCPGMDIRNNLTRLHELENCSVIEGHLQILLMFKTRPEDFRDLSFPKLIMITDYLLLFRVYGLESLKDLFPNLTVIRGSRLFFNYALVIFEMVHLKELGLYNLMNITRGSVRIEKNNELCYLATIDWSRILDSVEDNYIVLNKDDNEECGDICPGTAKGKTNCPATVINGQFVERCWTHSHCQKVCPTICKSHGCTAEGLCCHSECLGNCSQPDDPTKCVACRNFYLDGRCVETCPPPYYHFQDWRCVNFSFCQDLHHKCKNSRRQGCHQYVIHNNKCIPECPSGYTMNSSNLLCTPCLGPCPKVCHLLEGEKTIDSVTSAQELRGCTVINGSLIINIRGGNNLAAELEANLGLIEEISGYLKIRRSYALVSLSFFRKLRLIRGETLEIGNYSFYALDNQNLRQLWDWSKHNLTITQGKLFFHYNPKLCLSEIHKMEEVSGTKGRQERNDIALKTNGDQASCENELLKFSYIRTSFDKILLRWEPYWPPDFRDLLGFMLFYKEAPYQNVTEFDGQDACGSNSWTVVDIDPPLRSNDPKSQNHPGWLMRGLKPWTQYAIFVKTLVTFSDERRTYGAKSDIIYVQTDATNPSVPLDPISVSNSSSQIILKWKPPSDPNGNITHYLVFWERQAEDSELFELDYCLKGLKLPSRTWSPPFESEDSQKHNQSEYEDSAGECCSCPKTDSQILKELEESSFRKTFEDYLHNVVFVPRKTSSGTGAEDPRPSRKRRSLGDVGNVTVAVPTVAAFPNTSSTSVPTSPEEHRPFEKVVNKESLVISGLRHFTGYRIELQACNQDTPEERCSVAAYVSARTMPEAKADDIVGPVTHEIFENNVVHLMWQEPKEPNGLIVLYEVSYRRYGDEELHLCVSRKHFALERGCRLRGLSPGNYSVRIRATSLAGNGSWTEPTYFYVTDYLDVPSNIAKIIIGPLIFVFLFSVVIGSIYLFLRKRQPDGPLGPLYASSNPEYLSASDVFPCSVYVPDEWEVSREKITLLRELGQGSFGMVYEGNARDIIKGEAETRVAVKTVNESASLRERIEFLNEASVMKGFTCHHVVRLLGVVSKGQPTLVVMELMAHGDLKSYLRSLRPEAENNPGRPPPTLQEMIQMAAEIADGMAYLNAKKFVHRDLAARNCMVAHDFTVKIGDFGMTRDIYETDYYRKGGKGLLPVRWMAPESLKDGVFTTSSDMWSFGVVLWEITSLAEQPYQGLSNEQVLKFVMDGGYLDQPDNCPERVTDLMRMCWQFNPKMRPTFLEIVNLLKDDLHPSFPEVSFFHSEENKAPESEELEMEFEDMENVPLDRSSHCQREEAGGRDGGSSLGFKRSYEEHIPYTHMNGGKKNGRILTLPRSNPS
How it was run: as §1

COLO205 (colon) = test: Inhibition of cell proliferation, CellTiter-Glo, COLO205; details: Homo sapiens, COLO 205, 72 h
How it was run: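 Exponentially growing COLO205 cells in medium with 10% FBS were plated below 2000 cells/well at 37 °C, 5% CO2. Untreated wells served as controls.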

T1 sequence (P08069 31-1367): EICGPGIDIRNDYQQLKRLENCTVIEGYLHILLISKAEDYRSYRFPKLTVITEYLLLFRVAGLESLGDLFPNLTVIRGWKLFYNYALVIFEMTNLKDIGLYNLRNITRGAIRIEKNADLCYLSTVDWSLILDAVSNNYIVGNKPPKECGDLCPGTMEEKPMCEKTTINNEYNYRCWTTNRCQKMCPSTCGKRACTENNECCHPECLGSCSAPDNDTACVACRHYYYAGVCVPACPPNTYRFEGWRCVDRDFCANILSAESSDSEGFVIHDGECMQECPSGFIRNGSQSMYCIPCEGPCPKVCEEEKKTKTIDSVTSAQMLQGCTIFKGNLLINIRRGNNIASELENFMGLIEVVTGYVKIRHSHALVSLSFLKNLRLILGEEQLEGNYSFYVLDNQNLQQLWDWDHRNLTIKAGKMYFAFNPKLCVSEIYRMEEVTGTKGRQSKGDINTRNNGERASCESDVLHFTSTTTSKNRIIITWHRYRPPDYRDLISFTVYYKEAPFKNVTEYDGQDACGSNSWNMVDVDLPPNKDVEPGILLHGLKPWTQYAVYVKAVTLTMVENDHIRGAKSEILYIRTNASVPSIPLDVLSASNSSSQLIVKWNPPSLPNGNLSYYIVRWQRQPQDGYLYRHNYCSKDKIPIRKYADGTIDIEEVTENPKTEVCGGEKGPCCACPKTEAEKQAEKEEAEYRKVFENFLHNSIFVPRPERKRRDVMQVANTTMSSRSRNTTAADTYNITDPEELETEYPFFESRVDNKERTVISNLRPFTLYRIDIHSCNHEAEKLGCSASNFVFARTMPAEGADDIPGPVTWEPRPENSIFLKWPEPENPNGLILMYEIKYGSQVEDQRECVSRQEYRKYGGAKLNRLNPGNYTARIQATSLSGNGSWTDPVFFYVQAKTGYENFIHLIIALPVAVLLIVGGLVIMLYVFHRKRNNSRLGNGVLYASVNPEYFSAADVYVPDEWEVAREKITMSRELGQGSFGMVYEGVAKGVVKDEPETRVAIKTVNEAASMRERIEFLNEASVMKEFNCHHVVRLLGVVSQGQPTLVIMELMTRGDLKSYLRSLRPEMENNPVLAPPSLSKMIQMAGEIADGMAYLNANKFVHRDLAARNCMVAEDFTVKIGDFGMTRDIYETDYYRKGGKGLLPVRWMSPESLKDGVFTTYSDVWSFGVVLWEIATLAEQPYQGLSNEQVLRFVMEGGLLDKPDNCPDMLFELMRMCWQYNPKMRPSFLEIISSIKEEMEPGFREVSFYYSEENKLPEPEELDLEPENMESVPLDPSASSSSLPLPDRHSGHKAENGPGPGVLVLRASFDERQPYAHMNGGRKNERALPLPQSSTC

Row | SMILES | IC50 [1] | IC50 [2] | IC50 (COLO205 (colon))
1 | COc1cc(N2CCN(CCS(C)(=O)=O)CC2)ccc1Nc1nccc(-c2c(-c3ccc(OC)c(C(=O)Nc4c(F)cccc4F)c3)nc3ccccn23)n1 [Example 135, N-(2,6-difluorophenyl)-2-(methyloxy)-5-(3-{2-[(2-(methyloxy)-4-{4-[2-(methylsulfonyl)ethyl]-1-piperazinyl}phenyl)amino]-4-pyrimidinyl}imidazo[1,2-a]pyridin-2-yl)benzamide] | < 100 nM | < 100 nM | 250 to 1000 nM
2 | COc1cc(N2CCN(CCS(C)(=O)=O)CC2)ccc1Nc1nccc(-c2c(-c3cccc(C(=O)Nc4c(F)cccc4F)c3)nc3ccccn23)n1 [Example 136, N-(2,6-difluorophenyl)-3-(3-{2-[(2-(methyloxy)-4-{4-[2-(methylsulfonyl)ethyl]-1-piperazinyl}phenyl)amino]-4-pyrimidinyl}imidazo[1,2-a]pyridin-2-yl)benzamide] | < 100 nM | < 100 nM | 250 to 1000 nM
3 | COc1cc(CCCN2CCCCC2)ccc1Nc1nccc(-c2c(-c3cccc(C(=O)Nc4c(F)cccc4F)c3)nc3ccccn23)n1 [Example 139, N-(2,6-difluorophenyl)-3-{3-[2-({2-(methyloxy)-4-[3-(1-piperidinyl)propyl]phenyl}amino)-4-pyrimidinyl]imidazo[1,2-a]pyridin-2-yl}benzamide] | < 100 nM | 100 to 500 nM | 250 to 1000 nM
4 | COc1cc(CCCN2CCCCC2)ccc1Nc1nccc(-c2c(-c3ccc(OC)c(C(=O)Nc4c(F)cccc4F)c3)nc3ccccn23)n1 [Example 140, N-(2,6-difluorophenyl)-2-(methyloxy)-5-{3-[2-({2-(methyloxy)-4-[3-(1-piperidinyl)propyl]phenyl}amino)-4-pyrimidinyl]imidazo[1,2-a]pyridin-2-yl}benzamide] | < 100 nM | < 100 nM | 250 to 1000 nM
5 | COc1cc(CCCN2CCN(C)CC2)ccc1Nc1nccc(-c2c(-c3cccc(C(=O)Nc4c(F)cccc4F)c3)nc3ccccn23)n1 [Example 141, N-(2,6-difluorophenyl)-3-{3-[2-({2-(methyloxy)-4-[3-(4-methyl-1-piperazinyl)propyl]phenyl}amino)-4-pyrimidinyl]imidazo[1,2-a]pyridin-2-yl}benzamide] | 100 to 500 nM | 100 to 500 nM | 250 to 1000 nM
6 | COc1cc(CCCN2CCN(C)CC2)ccc1Nc1nccc(-c2c(-c3ccc(OC)c(C(=O)Nc4c(F)cccc4F)c3)nc3ccccn23)n1 [Example 142, N-(2,6-difluorophenyl)-2-(methyloxy)-5-{3-[2-({2-(methyloxy)-4-[3-(4-methyl-1-piperazinyl)propyl]phenyl}amino)-4-pyrimidinyl]imidazo[1,2-a]pyridin-2-yl}benzamide] | < 100 nM | < 100 nM | 250 to 1000 nM
7 | CCOc1cc(N2CCN(CCS(C)(=O)=O)CC2)ccc1Nc1nccc(-c2c(-c3cccc(C(=O)Nc4c(F)cccc4F)c3)nc3ccccn23)n1 [Example 145, N-(2,6-difluorophenyl)-3-(3-{2-[(2-(ethyloxy)-4-{4-[2-(methylsulfonyl)ethyl]-1-piperazinyl}phenyl)amino]-4-pyrimidinyl}imidazo[1,2-a]pyridin-2-yl)benzamide] | 100 to 500 nM | < 100 nM | 250 to 1000 nM
8 | COc1cc(N2CCC[C@H](O)C2)ccc1Nc1nccc(-c2c(-c3cccc(C(=O)Nc4c(F)cccc4F)c3)nc3ccccn23)n1 [Example 169, N-(2,6-difluorophenyl)-3-[3-(2-{[4-[(3S)-3-hydroxy-1-piperidinyl]-2-(methyloxy)phenyl]amino}-4-pyrimidinyl)imidazo[1,2-a]pyridin-2-yl]benzamide] | 100 to 500 nM | 100 to 500 nM | 250 to 1000 nM
9 | COc1cc(N2CCC[C@@H](O)C2)ccc1Nc1nccc(-c2c(-c3cccc(C(=O)Nc4c(F)cccc4F)c3)nc3ccccn23)n1 [Example 170, N-(2,6-difluorophenyl)-3-[3-(2-{[4-[(3R)-3-hydroxy-1-piperidinyl]-2-(methyloxy)phenyl]amino}-4-pyrimidinyl)imidazo[1,2-a]pyridin-2-yl]benzamide] | < 100 nM | 100 to 500 nM | 250 to 1000 nM
